Assays:
[1] = tested on: interface cells; assay: Effect of contrast medium on interface cells, WST-1 viability; type: cell-based, human; conditions: 4 hours exposure, 0-50% contrast medium, viability after 3 more days; p=0.563
Method: Interface cells were seeded in 96-wells plates. Into each well 50 μl of IMDM/20% FCS and 50 μl of a solution containing contrast medium and 0.9% NaCl in various concentrations (0, 12.5, 25, and 50% contrast medium) were added. The contrast medium used was the low-osmolarity, nonionic dimer iotrolan (Isovist; Schering, Berlin, Germany). After four hours of exposure to the contrast medium, the cells were washed twice and incubated in IMDM/10% FCS. The cells were cultured for three more days, changing the culture medium every day. On day four, cell viability was determined with the WST-1 cell viability assay kit (Roche, Mannheim, Germany) according to the manufacturers protocol.

[2] = tested on: interface cells; assay: Effect of contrast medium on HAdV-5 transduction of interface cells; type: cell-based, human; conditions: contrast medium concentration of 50%, 4 hours; p<0.001
Method: Interface cells were seeded in 96-wells plates. After overnight incubation cells were infected with Ad.CMV.LacZ (concentrations of 0, 25, 100, and 200 pfu/cell) in IMDM/20% FCS, 50 μl per well. Fifty μl Iotrolan (Isovist) in 0.9% NaCl was added in concentrations of 0, 25, 50, and 100%. (When diluted in the culture medium these concentrations decreased to 0, 12.5, 25, and 50%.) Four hours after infection, the cells were washed twice with IMDM and incubated for the rest of the day in IMDM/10% FCS at 37° C. and 5% CO2. The Ad.CMV.LacZ transduced cells were cultured for three days after removal of the vector and contrast medium. Subsequently, the cells were fixed and stained for β-galactasidase activity. The transduction rate was assessed as described above.

[3] = tested on: interface cells; assay: NTR/CB1954 cell killing in the presence of, or after transient exposure to, contrast medium; type: cell-based, human; conditions: results not shown
Description: The effect of contrast medium (iotrolan) on HAdV5-transduction of interface cells was investigated with Ad.CMV.LacZ. Transducibility of the cells increases with the concentration of HAdV-5 vector. However, the contrast medium has restraining influence on the transduction efficiency. With higher concentrations of iotrolan, the HAdV-5 vector concentration has less effect on gene transfer efficiency. […] The effect of iotrolan on the transduction is statistically significant (p<0.001). Furthermore, differences between cells from different individuals (n=6) have been observed. To evaluate the effect of contrast medium on cell killing by NTR/CB1954, the previously described experiment for the efficiency of cell killing was repeated in the presence of contrast medium. […] This incompatibility may be due to the presence of iodine within the contrast media. Screening of all available contrast media may allow determination of a contrast medium compatible with viral transduction.
The influence of transient exposure to contrast medium on the transduction of interface cells was investigated. Interface cells were exposed to contrast medium for 0 to 120 minutes and the period between washing away of the contrast medium and performing the NTR/CB1954 cell killing approach was varied. […]

[4] = tested on: loosened hip prosthesis; assay: Phase-1 clinical study: intra-articular vector, prodrug, then cement injection; conditions: Patient 1, twelve hours after prodrug injection
Method: After 48 hours, to allow transduction of target cells and expression of the nitroreductase transgene, CB1954 (at a dosage of 24 mg m^−2) is injected intra-articularly.

[5] = tested on: interface cells; assay: Transduction and cell killing assay: CTL102 infection, then CB1954, WST metabolic activity readout; type: cell-based, human
Method: Cell viability was then determined using a metabolic activity assay.
For all experiments described, interface cells were used. Interface tissue was removed from the periprosthetic space during revision-surgery by an orthopedic surgeon and collected in sterile phosphate buffered saline (PBS). Connective tissue and fat were removed thoroughly and the interface tissue was digested for at least two hours at 37° C. using collagenase 1A (1 mg/ml; Sigma, St Louis, Mo., USA). Cells were then harvested by filtering the tissue/collagenase substance through a 200 μm filter (NPBI, Emmer-Compascuum, The Netherlands). The cells were cultured in 75 cm^2 flasks (Cellstar, Greiner, Alphen aan de Rijn, The Netherlands) with Iscove's modified Dulbecco's medium (IMDM; Biowitthaker, Verviers, Belgium), supplemented with glutamax (GibcoBRL, Paisley, UK), penicillin and streptomycin (Boehringer Mannheim, Germany), and 10% fetal calf serum (FCS; GibcoBRL, Paisley, UK) at 37° C. and 5% CO2.
Before each experiment interface cells were detached from the flasks using 0.25% trypsin (GibcoBRL, Paisley, UK). The cells were counted in a bürker counter and death cells were excluded by trypan blue. Cells were seeded in a 96 wells-plate (flat bottom) at a density of 5,000 cells per well. Cells were incubated overnight to allow attachment to the bottom. […]
Hereafter the absorbance at 415 nm was measured.

[6] = Djeha et al, 2001; cited from earlier work

SMILES	effect on viability of interface cells [1]	transduction of interface cells by Ad.CMV.LacZ [2]	cell killing by NTR/CB1954 [3]	nausea [4] [WHO grade]	killing of interface cells ([5]; 200 virus pfu/cell and CB1954 50 μM, cells from two revision surgery patients) [%]	dose dependence of killing ([5]; CTL102 0-200 IU/cell, CB1954 0-50 μM, cells from both patients)	tolerability in man [6]
CN(C(=O)CC(=O)N(C)c1c(I)c(C(=O)NC(CO)C(O)CO)c(I)c(C(=O)NC(CO)C(O)CO)c1I)c1c(I)c(C(=O)NC(CO)C(O)CO)c(I)c(C(=O)NC(CO)C(O)CO)c1I (stereo not shown) [iotrolan]	does not affect the viability of the cells at any concentration	none of the cells were transduced					
NC(=O)c1cc(N2CC2)c([N+](=O)[O-])cc1[N+](=O)[O-] [CB1954, 5-(aziridin-1-yl)-2,4-dinitrobenzamide]			cells are not killed	1	90	virus and CB1954-dose dependent killing	well-tolerated in man

— patent publication US7674454B2, “Enzyme-prodrug therapy for prosthetic joint repair” (Innovata Limited, priority 2004, dated 2010)
